Assay results reported in patent US20170190671A1, “BIS(ARYL)CATECHOL DERIVATIVES AS HERBICIDES” (E I DU PONT DE NEMOURS AND COMPANY, priority 2014, published 2017).

Experiments:
Assay in all cases: Test C postemergence
Type in all cases: in vivo
[1] = tested on: oilseed rape (Brassica napus); conditions: Brassica napus, post-emergence, Postemergence, scale 0 to 100, read-out: Plant response rating, Oilseed Rape
[2] = tested on: blackgrass (Alopecurus myosuroides); conditions: Alopecurus myosuroides, post-emergence, 336 h, Postemergence, scale 0 to 100, read-out: Plant response rating, Blackgrass
corn (Zea mays) = conditions: Zea mays, post-emergence, 336 h, Postemergence, scale 0 to 100
soybean (Glycine max) = conditions: Glycine max, post-emergence, Postemergence, scale 0 to 100, read-out: Plant response rating, Soybean
wild oat (Avena fatua) = conditions: Avena fatua, post-emergence, Postemergence, scale 0 to 100, read-out: Plant response rating, Oat, Wild
[3] = tested on: barnyardgrass (Echinochloa crus-galli); conditions: Echinochloa crus-galli, post-emergence, Postemergence, scale 0 to 100, read-out: Plant response rating, Barnyardgrass
[4] = tested on: giant foxtail (Setaria faberii); conditions: Setaria faberi, post-emergence, 336 h, Postemergence, scale 0 to 100, read-out: Plant response rating, Foxtail, Giant
[5] = tested on: waterhemp (common waterhemp, Amaranthus rudis); conditions: Amaranthus tuberculatus, post-emergence, Postemergence, scale 0 to 100, read-out: Plant response rating, Waterhemp
[6] = tested on: yellow nutsedge (Cyperus esculentus); conditions: Cyperus, post-emergence, 336 h, Postemergence, scale 0 to 100, read-out: Plant response rating, Nutsedge, Yellow
[7] = tested on: lambsquarters (Chenopodium album); conditions: Chenopodium album, post-emergence, 336 h, Postemergence, scale 0 to 100, read-out: Plant response rating, Lambsquarters
[8] = tested on: johnsongrass (Sorghum halepense); conditions: Sorghum halepense, post-emergence, 336 h, Postemergence, scale 0 to 100, read-out: Plant response rating, Johnsongrass
[9] = tested on: Italian ryegrass (Lolium multiflorum); conditions: Lolium multiflorum, post-emergence, 336 h, Postemergence, scale 0 to 100, read-out: Plant response rating, Ryegrass, Italian
[10] = tested on: ragweed (common ragweed, Ambrosia elatior); conditions: Ambrosia artemisiifolia, post-emergence, 336 h, Postemergence, scale 0 to 100, read-out: Plant response rating, Ragweed
[11] = tested on: chickweed (common chickweed, Stellaria media); conditions: Stellaria media, post-emergence, Postemergence, scale 0 to 100, read-out: Plant response rating, Chickweed
[12] = tested on: pigweed (Amaranthus retroflexus); conditions: Amaranthus retroflexus, post-emergence, 336 h, Postemergence, scale 0 to 100, read-out: Plant response rating, Pigweed

Q: `N#Cc1cccc(Oc2ncc(Cl)cn2)c1Oc1cnc(Cl)cn1` [Compound 32, 2-[(5-chloro-2-pyrazinyl)oxy]-3-[(5-chloro-2-pyrimidinyl)oxy]benzonitrile] was tested. Which plant injury at 31 g/ha ([1]; 31 g ai/ha) did it give?
A: The plant injury at 31 g/ha was 80%.

Q: And the plant injury at 62 g/ha ([1]; 62 g ai/ha)?
A: Its plant injury at 62 g/ha is 85%.

Q: What about the plant injury at 125 g/ha ([1]; 125 g ai/ha) of the same molecule?
A: The plant injury at 125 g/ha was 85%.

Q: And the pest or weed control at 16 g/ha ([2]; 16 g ai/ha)?
A: Its pest or weed control at 16 g/ha is 5%.

Q: And the pest or weed control at 31 g/ha ([2]; 31 g ai/ha)?
A: Its pest or weed control at 31 g/ha is 5%.

Q: What about the pest or weed control at 62 g/ha ([2]; 62 g ai/ha) of the same molecule?
A: The pest or weed control at 62 g/ha was 5%.

Q: What about the pest or weed control at 125 g/ha ([2]; 125 g ai/ha) of the same molecule?
A: The pest or weed control at 125 g/ha was 10%.

Q: And the Corn plant response rating (crop injury, 0 = no effect, 100 = complete kill) at 16 g/ha (corn (Zea mays); 16 g ai/ha)?
A: The Corn plant response rating (crop injury, 0 = no effect, 100 = complete kill) at 16 g/ha was 20%.

Q: What about the Corn plant response rating (crop injury, 0 = no effect, 100 = complete kill) at 31 g/ha (corn (Zea mays); 31 g ai/ha) of the same molecule?
A: The Corn plant response rating (crop injury, 0 = no effect, 100 = complete kill) at 31 g/ha was 20%.

Q: What about the Corn plant response rating (crop injury, 0 = no effect, 100 = complete kill) at 62 g/ha (corn (Zea mays); 62 g ai/ha) of the same molecule?
A: The Corn plant response rating (crop injury, 0 = no effect, 100 = complete kill) at 62 g/ha was 25%.

Q: What about the Corn plant response rating (crop injury, 0 = no effect, 100 = complete kill) at 125 g/ha (corn (Zea mays); 125 g ai/ha) of the same molecule?
A: Its Corn plant response rating (crop injury, 0 = no effect, 100 = complete kill) at 125 g/ha is 25%.

Q: What about the plant injury at 31 g/ha (soybean (Glycine max); 31 g ai/ha) of the same molecule?
A: The plant injury at 31 g/ha was 65%.

Q: And the plant injury at 62 g/ha (soybean (Glycine max); 62 g ai/ha)?
A: Its plant injury at 62 g/ha is 85%.

Q: What about the plant injury at 125 g/ha (soybean (Glycine max); 125 g ai/ha) of the same molecule?
A: The plant injury at 125 g/ha was 85%.

Q: And the pest or weed control at 31 g/ha (wild oat (Avena fatua); 31 g ai/ha)?
A: Its pest or weed control at 31 g/ha is 30%.

Q: What about the pest or weed control at 62 g/ha (wild oat (Avena fatua); 62 g ai/ha) of the same molecule?
A: Its pest or weed control at 62 g/ha is 30%.

Q: What about the pest or weed control at 125 g/ha (wild oat (Avena fatua); 125 g ai/ha) of the same molecule?
A: Its pest or weed control at 125 g/ha is 30%.

Q: What about the pest or weed control at 16 g/ha ([3]; 16 g ai/ha) of the same molecule?
A: Its pest or weed control at 16 g/ha is 10%.

Q: And the pest or weed control at 31 g/ha ([3]; 31 g ai/ha)?
A: The pest or weed control at 31 g/ha was 20%.

Q: What about the pest or weed control at 62 g/ha ([3]; 62 g ai/ha) of the same molecule?
A: The pest or weed control at 62 g/ha was 20%.

Q: What about the pest or weed control at 125 g/ha ([3]; 125 g ai/ha) of the same molecule?
A: Its pest or weed control at 125 g/ha is 30%.

Q: What about the pest or weed control at 16 g/ha ([4]; 16 g ai/ha) of the same molecule?
A: Its pest or weed control at 16 g/ha is 20%.

Q: What about the pest or weed control at 31 g/ha ([4]; 31 g ai/ha) of the same molecule?
A: Its pest or weed control at 31 g/ha is 20%.

Q: What about the pest or weed control at 62 g/ha ([4]; 62 g ai/ha) of the same molecule?
A: The pest or weed control at 62 g/ha was 15%.

Q: And the pest or weed control at 125 g/ha ([4]; 125 g ai/ha)?
A: Its pest or weed control at 125 g/ha is 20%.

Q: And the pest or weed control at 31 g/ha ([5]; 31 g ai/ha)?
A: The pest or weed control at 31 g/ha was 85%.

Q: And the pest or weed control at 62 g/ha ([5]; 62 g ai/ha)?
A: Its pest or weed control at 62 g/ha is 85%.

Q: And the pest or weed control at 125 g/ha ([5]; 125 g ai/ha)?
A: The pest or weed control at 125 g/ha was 95%.

Q: What about the pest or weed control at 31 g/ha ([6]; 31 g ai/ha) of the same molecule?
A: Its pest or weed control at 31 g/ha is 20%.

Q: What about the pest or weed control at 62 g/ha ([6]; 62 g ai/ha) of the same molecule?
A: The pest or weed control at 62 g/ha was 20%.

Q: What about the pest or weed control at 125 g/ha ([6]; 125 g ai/ha) of the same molecule?
A: Its pest or weed control at 125 g/ha is 20%.

Q: What about the pest or weed control at 16 g/ha ([7]; 16 g ai/ha) of the same molecule?
A: The pest or weed control at 16 g/ha was 80%.

Q: And the pest or weed control at 31 g/ha ([7]; 31 g ai/ha)?
A: The pest or weed control at 31 g/ha was 90%.

Q: What about the pest or weed control at 62 g/ha ([7]; 62 g ai/ha) of the same molecule?
A: The pest or weed control at 62 g/ha was 85%.

Q: What about the pest or weed control at 125 g/ha ([7]; 125 g ai/ha) of the same molecule?
A: The pest or weed control at 125 g/ha was 90%.

Q: And the pest or weed control at 16 g/ha ([8]; 16 g ai/ha)?
A: Its pest or weed control at 16 g/ha is 10%.

Q: What about the pest or weed control at 31 g/ha ([8]; 31 g ai/ha) of the same molecule?
A: The pest or weed control at 31 g/ha was 10%.

Q: And the pest or weed control at 62 g/ha ([8]; 62 g ai/ha)?
A: Its pest or weed control at 62 g/ha is 10%.

Q: What about the pest or weed control at 125 g/ha ([8]; 125 g ai/ha) of the same molecule?
A: The pest or weed control at 125 g/ha was 40%.

Q: And the pest or weed control at 31 g/ha ([9]; 31 g ai/ha)?
A: The pest or weed control at 31 g/ha was 5%.

Q: And the pest or weed control at 62 g/ha ([9]; 62 g ai/ha)?
A: Its pest or weed control at 62 g/ha is 10%.

Q: And the pest or weed control at 125 g/ha ([9]; 125 g ai/ha)?
A: Its pest or weed control at 125 g/ha is 30%.

Q: What about the pest or weed control at 31 g/ha ([10]; 31 g ai/ha) of the same molecule?
A: The pest or weed control at 31 g/ha was 55%.

Q: What about the pest or weed control at 62 g/ha ([10]; 62 g ai/ha) of the same molecule?
A: The pest or weed control at 62 g/ha was 80%.

Q: And the pest or weed control at 125 g/ha ([10]; 125 g ai/ha)?
A: The pest or weed control at 125 g/ha was 80%.

Q: And the pest or weed control at 16 g/ha ([11]; 16 g ai/ha)?
A: The pest or weed control at 16 g/ha was 70%.

Q: What about the pest or weed control at 31 g/ha ([11]; 31 g ai/ha) of the same molecule?
A: Its pest or weed control at 31 g/ha is 80%.

Q: And the pest or weed control at 62 g/ha ([11]; 62 g ai/ha)?
A: The pest or weed control at 62 g/ha was 80%.

Q: What about the pest or weed control at 125 g/ha ([11]; 125 g ai/ha) of the same molecule?
A: Its pest or weed control at 125 g/ha is 85%.

Q: And the pest or weed control at 31 g/ha ([12]; 31 g ai/ha)?
A: The pest or weed control at 31 g/ha was 85%.

Q: What about the pest or weed control at 62 g/ha ([12]; 62 g ai/ha) of the same molecule?
A: Its pest or weed control at 62 g/ha is 90%.

Q: And the pest or weed control at 125 g/ha ([12]; 125 g ai/ha)?
A: The pest or weed control at 125 g/ha was 95%.
